According to patent US6342517B1, “Potassium channel activators and their use” (Cambridge Bioclinical Limited, priority 1998, dated 2002):

Assays:
[1] = tested on: K+-stimulated isolated rat aorta; assay: K+-stimulated isolated rat aorta test; details: relaxation of contraction triggered by 25 mM KCl in rat aorta rings; asterisk (*) = low activity, only approximate value
Procedure: K^+-stimulated Isolated Rat Aorta Test
Male rats weighing about 300 g are killed painlessly by a blow to the neck and quickly exsanguinated. The thoracic cavity is opened and the aorta is carefully resectioned. It is placed in a Petri dish filled with Krebs solution, and surrounding connective and fatty tissue is removed. Two rings are prepared. The rings are each suspended in an organ bath, They are attached at the bottom to a hook and at the top to an electrical force transducer which is able to measure precisely contractions of 0-10 grams in strength. The measured contractions are amplified by means of a bridge amplifier and recorded with a thermal plotter.
The organ baths are filled with Krebs solution at 37° C. through which an O2/CO2 mixture is bubbled thoroughly and which has the following composition (mmol/1): NaCl 118.4; KCl 4.7; CaCl2 2.5; KH2PO4 1.2; MgSO4 1.2; NaHCO3 25; glucose 11.
The rings are stretched with a basic tone of about 0.5 g, After an equilibration time of about 30 minutes, the rings are caused to undergo contraction by depolarization (addition of 25 mM KCl to the organ bath). The contractions of the rings of aorta, triggered by the depolarization, quickly reach a plateau, As soon as this plateau is reached (“100% value”), the test substance is added to the organ bath, initially at low concentrations, for example 10^−8M, and then in increasing doses at regular intervals, until the contractions reduce or the final concentration of 10^−4M is reached. Each test substance is tested 2-4 times in this way.
For purposes of evaluation, the height of the contractions registered on the plotter paper is measured for each experiment after the action of each test concentration added. The IC50 value can be calculated in this way in relation to the original height of contractions before the addition of substance (100%).

NIH 3T3 fibroblasts = assay: Cell growth potentiation test (potentiation of mitogenic activity of fetal calf serum, EZ4U cellular proliferation assay); assay type: cell-based; details: for Cell growth relative to FCS alone (%): 100% = same growth as base concentration of FCS alone; for Cell growth potentiation relative to minoxidil at 100 μM (%): 0% = base concentration of FCS alone (5% or 3%), 100% = minoxidil at 100 μM
Description: To test for activity in mammalian hair growth stimulation, an in vitro test of cell growth potentiation has been applied to a number of the compounds of the invention and prior art compounds 11901 and 11903. The test involves an assay of the call growth due to potentiation of the mitogenic activity of fetal calf serum (FCS). See WO97/14036. Details of materials, methods and results are as follows.
Tissue culture plastics were obtained from Beckton Dickinson (Cowley, Oxford, UK). NIH 3T3 fibroblasts were obtained from the European collection of animal cell cultures (Salisbury, Wilts, UK). Dulbecco's modified Eagle's medium (DMEM) was obtained from Flow Laboratories (Rickmansworth, Herts, UK). L-Glutamine and fetal calf serum were from Gibco (Paisley, UK).
The EZ4U cell proliferation assay kits were obtained from Cozart Bioscience Ltd (Abingdon, Oxon, UK). All other chemicals were obtained from Sigma Chemical Company Ltd. (Poole, Dorset, UK), and of the highest grade available.
NIH 3T3 fibroblasts were maintained in Dulbecco's modified Eagle's medium supplemented with 10% FCS and 2 mM L-glutamine in 150 cm^2 tissue culture flasks at 37° C. in an atmosphere of 5% CO2/95% air. Antibiotics were omitted. Medium was changed every 3 days, and passages were carried out twice a week before cells reached confluence. Prior to experiments, cells were passaged and plated out to give 10^4 cell/ml in 96-well multi-well plates. Cells were incubated for 24 hours with Dulbecco's modified Eagle's medium supplemented with 10% FCS to aid attachment. This was then removed and the experimental medium added.
Compounds were prepared following a general preparation protocol. This protocol consisted of taking a mass of compound, dissolving in the recommended solvent (40 μl) such that in the final preparation the concentrations of compound and solvent would be 100 μM and 0.1 respectively. In theory this volume was 40 μl, however for accuracy a mass larger than the required mass was dispensed and the solvent volume varied accordingly; only 40 μl of this solution was required for the next stage. The 40 μl volume was then added to a volume of FCS (1.2 ml), such that in the final preparation the concentration of FCS would be 3%. This solution was then added to DMEM containing L-glutamine (2 mM) (18.76 ml). The resulting solution of 20 ml volume was filter stabilised. This solution is now 200 μM in compound, 6% FCS and 0.2% solvent, and so was diluted 1:1 with the DMEM containing L-glutamine. This 100 μM stock could then be diluted serially to provide lower concentrations of the compound of interest. Solutions containing different ratios of compound and FCS were obtained in a similar manner.
This was performed, following the manufacturer's instructions, using an EZ4U assay kit, which is based upon the conversion of tetrazolium salt to coloured formazam derivatives by mitochondria (Hansen et al, 1989). Plates were read on a plate reader (Anthos Labtec HT2), using a measurement filter (450 nm), with a reference filter (620 nm) with a low Shaking density for 5 seconds prior to measurement. Control experiments were made against counting cells in a haemocytometer (sanders et al, 1996). There is some variance of results between different batches of FCS employed.
A series of cell growth potentiation/inhibition tests has been carried out in accordance with the procedure described above on some of the compounds of the invention, on compounds 11901 and 11903 and on minoxidil (a compound well known for its hair growth stimulation effects). Because of some variability of results with different batches of FCS, each compound was tested in a solution of a base concentration of FCS and was compared with minoxidil in a solution of the same base concentration of FCS and with a solution having the same base concentration of FCS alone (no additive), using the same FCS batch in order to provide standardised comparisons for that compound. […]

CC1(C)CC2(SCCCS2)c2sccc2O1 [Compound 50048, 6′,7′-Dihydro-5′,5′-dimethylspiro[1,3-dithiane-2,7′-5H-thieno[3,2-b]pyran]]
melting point: 121 to 123 °C | IC50 [1]: 2.9 µM

CC1=C(C)CC2(CC(C)(C)Oc3ccsc32)SC1 (stereo not drawn) [Compound 50049, 3′,6,6′,7-Tetrahydro-4′,5,5,5′-tetramethylspiro[5H-thieno[3,2-b]pyran-7,2′-2H-thiopyran]]
melting point: 90 to 92 °C | Cell growth relative to FCS alone (%) (NIH 3T3 fibroblasts; Compound at 10 μM): 100% | Cell growth relative to FCS alone (%) (NIH 3T3 fibroblasts; Compound at 100 μM): 50% | IC50 [1]: ~10 µM

CC1(C)CC2(SCCCS2)c2sc(C#N)cc2O1 [Compound 50057, 6′,7′-Dihydro-5′,5′-dimethylspiro[1,3-dithiane-2,7′-5H-thieno[3,2-b]pyran]-2′-carbonitrile]
Cell growth relative to FCS alone (%) (NIH 3T3 fibroblasts; Compound at 10 μM): 98% | Cell growth potentiation relative to minoxidil at 100 μM (%) (NIH 3T3 fibroblasts; Compound at 100 μM): 33% | IC50 [1]: ~10 µM

CC1=C(C)CC2(CC(C)(C)Oc3cc(S(=O)(=O)c4ccccc4)sc32)SC1 (stereo not drawn) [Compound 50121, 3′,6,6′,7-Tetrahydro-4′,5,5,5′-tetramethyl-2-(phenylsulphonyl)spiro[5H-thieno[3,2-b]pyran-7,2′-2H-thiopyran]]
melting point: 175 to 178 °C | Cell growth potentiation relative to minoxidil at 100 μM (%) (NIH 3T3 fibroblasts; Compound at 10 μM): 285% | Cell growth potentiation relative to minoxidil at 100 μM (%) (NIH 3T3 fibroblasts; Compound at 100 μM): 271% | IC50 [1]: > 100 µM

6′,7′-Dihyrdro-5′,5′-dimethylspiro[1,3-dithiolane-2,7′-5H-thieno[3,2-b]pyran] [Compound 50063]
Cell growth relative to FCS alone (%) (NIH 3T3 fibroblasts; Compound at 10 μM): 55% | Cell growth relative to FCS alone (%) (NIH 3T3 fibroblasts; Compound at 100 μM): 93% | IC50 [1]: ~10 µM

CC1(C)C[C@@]2(SCC[S@+]2[O-])c2sc(C#N)cc2O1 (relative stereo) [Compound 50067, rel-(1S, 2S)-6′,7′-Dihydro-5′,5′-dimethylspiro[1,3-dithiolane-2,7′-5H-thieno[3,2-b]pyran]-2′-carbonitrile-1-oxide]
Cell growth relative to FCS alone (%) (NIH 3T3 fibroblasts; Compound at 10 μM): 96% | Cell growth relative to FCS alone (%) (NIH 3T3 fibroblasts; Compound at 100 μM): 69% | IC50 [1]: ~100 µM

CC1(C)C=C(N2CCCC2=O)c2sc(S(=O)(=O)c3ccccc3)cc2O1 [Compound 50109, 5,5-Dimethyl-7-(2-oxo-1-pyrrolidinyl)-2-(phenylsulphonyl)-5H-thieno[3,2-b]pyran]
Cell growth potentiation relative to minoxidil at 100 μM (%) (NIH 3T3 fibroblasts; Compound at 10 μM): 233% | Cell growth potentiation relative to minoxidil at 100 μM (%) (NIH 3T3 fibroblasts; Compound at 100 μM): 122% | IC50 [1]: 0.24 µM

CC1=C(C)CC2(CC(C)(C)Oc3cc(C#N)sc32)SC1 (stereo not drawn) [Compound 50092, 3′,6,6′,7-Tetrahydro-4′,5,5,5′-tetramethylspiro[5H-thieno[3,2-b]pyran-7,2′-2H-thiopyran]-2-carbonitrile]
melting point: 148 to 149 °C | Cell growth potentiation relative to minoxidil at 100 μM (%) (NIH 3T3 fibroblasts; Compound at 10 μM): 214% | Cell growth potentiation relative to minoxidil at 100 μM (%) (NIH 3T3 fibroblasts; Compound at 100 μM): 71% | IC50 [1]: ~10 µM

CC1=C(C)C[C@@]2(CC(C)(C)Oc3cc(C#N)sc32)[S@+]([O-])C1 (relative stereo) [Compound 50097, rel-(1′R, 2′S)-3′,6,6′,7-Tetrahydro-4′,5,5′,5-tetramethyl-1′-oxospiro[5H-thieno[3,2-b]pyran-7,2′-2H-thiopyran]-2-carbonitrile]
melting point: 179 to 183 °C | Cell growth potentiation relative to minoxidil at 100 μM (%) (NIH 3T3 fibroblasts; Compound at 10 μM): 242% | Cell growth potentiation relative to minoxidil at 100 μM (%) (NIH 3T3 fibroblasts; Compound at 100 μM): 257% | IC50 [1]: ~10 µM
